From US9523109B2, “Method for enzymatically preparing peptides for use in improvement of brain function” (CALPIS CO., LTD., priority 2011, dated 2016)
Where no end group is shown, it is not given here.

Key:
[1] = test system: scopolamine-induced amnesia; test: Y-shaped maze test (spontaneous alternation behavior) after scopolamine-induced brain dysfunction; assay type: in vivo, Male ddY mice; details: scopolamine 1 mg/kg s.c.
Procedure: Male ddY mice (about 7 weeks old) were used (n=15 to 75), and provided with food and water ad libitum. Asn-Ile-Pro-Pro-Leu-Thr-Gln-Thr-Pro-Val-Val-Val-Pro-Pro-Phe-Leu-Gln-Pro-Glu (SEQ ID NO: 1) was used as a test substance in amounts of 0.05 nmol/kg body weight (0.1 μg/kg body weight), 0.5 nmol/kg body weight (1 μg/kg body weight), 1.5 nmol/kg body weight (3 μg/kg body weight), 5 nmol/kg body weight (10 μg/kg body weight), 50 nmol/kg body weight (100 μg/kg body weight), and 500 nmol/kg body weight (1,000 μg/kg body weight). The test substance was administered as a single dose orally to mice 60 minutes before performing a Y-shaped maze test for evaluating spontaneous alternation behavior. Thirty minutes before performing the Y-shaped maze test, scopolamine was subcutaneously administered in an amount of 1 mg/kg body weight into the back to induce brain dysfunction (memory disorder and/or cognition disorder) in mice. In the Y-shaped maze test, as an experiment device, a Y-shaped maze was used in which the length for each arm was 40 cm; the wall height was 12 cm; the floor width was 3 cm; the upper part width was 10 cm; and three arms were connected to each other at an angle of 120°. Each mouse was placed in the end of any of the alms of the Y-shaped maze and allowed to explore freely in the maze over 8 minutes, and the sequence of the arms to which the mouse moved was recorded. The number of movements of the mouse to the arms within the measurement time was counted and used as the total number of entries; in the sequence, the combination in which three different arms were selected in succession (for example, with the three arms respectively called A, B, and C, if the sequence of the arms entered is ABCBACACB, the count is 4 inclusive of overlapping) was investigated, and the count number was used as the number of spontaneous alternation behaviors. The change in spontaneous alternation behavior (%) was calculated by dividing the number of spontaneous alternation behaviors by a number obtained by subtracting 2 from the total number of entries, and multiplying the resultant number by 100, and the percentage was used as an indicator of the spontaneous alternation behavior. […] The measured values were expressed as mean±standard error for each group. The significance of difference between the control group and the scopolamine control group was tested by Student's t-test. […]
Male ddY mice (about 7 weeks old) were used (n=15 to 45), and provided with food and water ad libitum. […] Each mouse was placed in the end of any of the arms of the Y-shaped maze and allowed to explore freely in the maze over 8 minutes, and the sequence of the arms to which the mouse moved was recorded. […]

[2] = test system: memory retention; test: novel object recognition test for evaluating memory retention; assay type: in vivo, Male ddY mice; details: Example 6, FIG. 7; single oral dose 500 nmol/kg body weight (1,000 μg/kg) 60 min before training trial; retention trial 48 hours later
Procedure: Male ddY mice (about 7 weeks old) were used (n=14 to 15), and provided with food and water ad libitum. As a test substance, 500 nmol/kg body weight (1,000 μg/kg body weight) of Asn-Ile-Pro-Pro-Leu-Thr-Gln-Thr-Pro-Val-Val-Val-Pro-Pro-Phe-Leu-Gln-Pro-Glu (SEQ ID NO: 1) was used. The test substance was administered as a single dose orally to mice 60 minutes before performing a novel object recognition test for evaluating memory retention. In the novel object recognition test, a 30×30×30 cm box was used as an experiment device. As a conditioning operation, a mouse was placed in an experiment device in which a floorcloth was laid for 5 minutes, and allowed to explore freely in the device. A training trial was performed the day following the conditioning operation. […] Sixty minutes after orally administering the test substance or water, a mouse was placed in the experiment device for 5 minutes, and the time (second) was measured during which the mouse explored by approaching each object to be within 1 cm therefrom. […] (However, the state in which a mouse rides on an object is excluded.) The percentages of the times were determined during which two objects were explored in each of the training trial and the retention trial. The percentage (%) of the exploration time for each object was expressed as mean±standard error for each of the groups. […]

[3] = Example 5, FIG. 6, single oral dose 50 nmol/kg body weight 60 min before test

Sequence | amnesia-preventing action (change in spontaneous alternation behavior) ([1]; Example 4, FIG. 5, single oral dose 60 min before test, range 0.05 nmol/kg body weight to 500 nmol/kg body weight (0.1 to 1,000 μg/kg)) | amnesia-preventing action (change in spontaneous alternation behavior) [1, 3] | memory-enhancing action (percentage of exploration time for novel object) [2] | amnesia-preventing action (change in spontaneous alternation behavior) ([1]; Example 7, FIG. 8, single oral dose 150 nmol/kg body weight to 500 nmol/kg body weight (380 to 1,280 μg/kg))
NIPPLTQTPVVVPPFLQPE [SEQ ID NO: 1] | amnesia-preventing action | amnesia-preventing action | memory-enhancing action | 
NIPPLTQTPVVVPPFLQPEVM [SEQ ID NO: 2] |  | amnesia-preventing action |  | 
SWMHQPHQPLPPTVMFPPQSVL [SEQ ID NO: 3] |  |  |  | amnesia-preventing action
